Assay results taken from patent US6805878B2, “Transdermal administration of ACE inhibitors” (Noven Pharmaceuticals, Inc., priority 2001, dated 2004).
Counter-ions that a name gives are not always drawn.

What was measured:
[1] = Human cadaver skin permeation (flux) study, modified Franz diffusion cells; assay type: in vitro ADME; conditions: for flux of a dermal composition: carrier composition of Example 2, different cadaver skin, FIG. 1; for flux through skin (in words): enalapril ethyl ester prodrug compared with enalapril maleate form
Method: (§1) Human cadaver skin permeation studies were performed to quantitatively determine the effective permeation of enalapril ethyl ester through the stratum corneum. The stratum corneum was obtained from split thickness, cryo-preserved cadaver skin by the heat separation technique (˜55°). Samples of 5/16″ diameter were cut from the laminate, in triplicate, and mounted onto ½″ cut pieces of the stratum corneum. These samples were then placed on modified Franz diffusion cells. The receptor was filled with 7.5 mL of 0.9% NaCl and 0.01% NaN3 in deionized water. The cells were maintained at a constant 32° C. and were magnetically stirred at approximately 300 rpm. At specified time points, samples of the receptor phase were taken with complete replacement of the receptor phase. These samples were quantified by high-performance liquid chromatography (HPLC) utilizing Waters HPLC instrumentation. C-8(15 cm×4.6 mm) 5 μm particle size columns ([…] made by MetaChem Technologies, Inc.; Torrance, Calif.) were used at 50° C. (column temperature). The mobile phase contained 50% acetonitrile: 50% buffer (10 mM KH2PO4, pH=2.7). The detection wavelength was 214 nm. HPLC flow rate is 1.5 mL/min.

[2] = test system: esterase enzyme in the skin; assay: Hydrolysis of penetrated prodrug in the skin after permeation; assay type: in vitro ADME, Human
Method: as §1
More than 50% of the penetrated enalapril ethyl ester was hydrolyzed into enalaprilat after permeation through the skin.

Row | flux of a dermal composition [1] | flux through skin (in words) [1] | penetrated enalapril ethyl ester hydrolyzed into enalaprilat ([2]; after permeation through the skin) | hydrolysis of the ethyl ester group on the proline moiety ([2]; by an esterase enzyme in the skin) | SMILES
1 | 4.8 µg/cm²/h | significantly greater | More than 50% | selectively hydrolyzed | CCOC(=O)[C@H](CCc1ccccc1)N[C@@H](C)C(=O)N1CCC[C@H]1C(=O)OCC [enalapril ethyl ester]
2 | 0.2 μg/cm^2/sec | negligible | – | – | CCOC(=O)[C@H](CCc1ccccc1)N[C@@H](C)C(=O)N1CCC[C@H]1C(=O)O [enalapril maleate, reference compound]
